Results on seven molecules are retold here after DBAASP.

Structures are written as SMILES. Converted amounts (≈) assume the structure as drawn. “And” between values parts separate entries of the source, which are not always exact repeats. Equal values may be shown once. Bounds are passed on as bounds.

Test systems include Salmonella typhimurium; Staphylococcus aureus MR; Staphylococcus aureus; Candida glabrata 65C; Cupriavidus necator H16; Escherichia coli JM109.
Holding throughout (assay): ≥ marks a high value that may be exact or a test limit, other limits are often not marked, values filed in µg/mL are converted to µM
Experiment [1] relates to Aeromonas salmonicida NCIMB 1102.
For experiment [2], the system named is Bacillus subtilis IAM 1026.
In experiment [3] the test system is Escherichia coli JCM 1649.
For experiment [4], the system named is Photobacterium damselae subsp. piscicida Sp 9587.
Experiment [5] has as its system Shewanella putrefaciens IAM 1509.
The test system of experiment [6] is Staphylococcus aureus IAM 1011.
For experiment [7], the system named is Vibrio anguillarum NCIMB 829.
Experiment [8] concerns Vibrio parahaemolyticus Vp+1.
Experiment [9] has as its system Clavibacter michiganensis subsp. michiganensis DSM 46294.
Experiment [10] deals with Pectobacterium carotovorum subsp. carotovorum DSM 30168.
Experiment [11] relates to Pseudomonas corrugata DSM 7228.
The test system of experiment [12] is Pseudomonas syringae pv. syringae DSM 10604.
Experiment [13] concerns Pseudomonas syringae pv. tomato DC3000.
In experiment [14] the test system is Xanthomonas vesicatoria DSM 50861.
Experiment [15] has as its system Enterococcus faecalis ATCC 29212.
Experiment [16] deals with Escherichia coli ATCC 25922.
Experiment [17] concerns Pseudomonas aeruginosa 253.
The subject of experiment [18] is Pseudomonas aeruginosa 910.
The subject of experiment [19] is Pseudomonas aeruginosa 919.
In experiment [20] the test system is Pseudomonas aeruginosa ATCC 27853.
Experiment [21] has as its system Pseudomonas aeruginosa PAO1.
Experiment [22] deals with Staphylococcus aureus ATCC 29213.
Experiment [23] deals with Staphylococcus epidermidis PIA 8400.
Experiment [24] deals with Neisseria gonorrhoeae F62.
Experiment [25] concerns Neisseria gonorrhoeae FA19.
Experiment [26] concerns Candida albicans ATCC 96112.
Experiment [27] relates to Candida glabrata ATCC 90030.
The test system of experiment [28] is Cryptococcus neoformans ATCC 52817.
The test system of experiment [29] is Cryptococcus neoformans CN2.
The subject of experiment [30] is Saccharomyces cerevisiae S288C.
For experiment [31], the system named is Streptococcus gordonii ATCC 10558.
Experiment [32] deals with Streptococcus mutans GS-5.
The subject of experiment [33] is Streptococcus mutans UA159.
In experiment [34] the test system is Streptococcus sanguinis ATCC 49295.
Experiment [35] deals with Escherichia coli BL21(DE3).
Experiment [36] concerns Pseudomonas putida GPp104.
Experiment [37] has as its system Aspergillus niger CECT 2694.
Experiment [38] has as its system Fusarium oxysporum f. sp. lycopersici ATCC 201829.
Experiment [39] deals with Penicillium expansum EPS 26.
For experiment [40], the system named is Rhizopus stolonifer CECT 2344.

For `CC[C@H](C)[C@H](NC(=O)[C@H](C)NC(=O)[C@H](Cc1cnc[nH]1)NC(=O)[C@@H](NC(=O)[C@@H](NC(=O)[C@H](Cc1cnc[nH]1)NC(=O)[C@H](Cc1cnc[nH]1)NC(=O)[C@@H](NC(=O)[C@@H](N)Cc1ccccc1)[C@@H](C)CC)[C@@H](C)CC)C(C)C)C(=O)NCC(=O)N[C@@H](CCCN=C(N)N)C(=O)N[C@@H](CC(C)C)C(=O)N[C@@H](Cc1ccccc1)C(N)=O` [FIHHIVHAIGRLF], the MIC (in general, the smallest concentration in the dilution series that meets the test's criterion for growth inhibition) in experiment [1] was 16 µM (≈ 25 µg/mL); in experiment [2], 8.01 µM (≈ 12.5 µg/mL); in experiment [3], at least 32.1 µM; in [4], 8.01 µM (≈ 12.5 µg/mL); against Salmonella typhimurium, at least 32.1 µM; in [5], 4.01 µM (≈ 6.25 µg/mL). The figures for the MIC in [6], in experiment [7] and in experiment [8] were 2.01 µM (≈ 3.13 µg/mL), at least 32.1 µM and at least 32.1 µM, respectively.

Consider `CC[C@H](C)[C@H](NC(=O)[C@H](CC(C)C)NC(=O)[C@H](CCCN=C(N)N)NC(=O)[C@H](CCCN=C(N)N)NC(=O)[C@@H](N)CCCCN)C(=O)N[C@@H](Cc1ccccc1)C(=O)N[C@@H](CCCN=C(N)N)C(=O)N[C@H](C(=O)N[C@@H](CC(C)C)C(=O)N[C@@H](CCCCN)C(=O)N[C@@H](CC(C)C)C(=O)N[C@@H](Cc1ccccc1)C(=O)N[C@@H](Cc1ccccc1)C(=O)N[C@@H](CCCN=C(N)N)C(=O)N[C@@H](Cc1ccccc1)C(=O)N[C@@H](CC(C)C)C(=O)N[C@H](C(=O)N[C@@H](CCCCN)C(=O)N[C@@H](CCCCN)C(=O)N[C@@H](CCCN=C(N)N)C(N)=O)C(C)C)[C@@H](C)CC` [KRRLIFRILKLFFRFLVKKR], for which the MIC is 0.373 µM (≈ 1 µg/mL) in experiment [9]; 3.73 µM (≈ 10 µg/mL) in experiment [10]; 1.87 µM (≈ 5 µg/mL) in experiment [11]; 3.73 µM (≈ 10 µg/mL) in [12]; 3.73 µM (≈ 10 µg/mL) in experiment [13]; 0.933 µM (≈ 2.5 µg/mL) in experiment [14].

On to `CC[C@H](C)[C@H](NC(=O)[C@H](CCCN=C(N)N)NC(=O)[C@H](Cc1c[nH]c2ccccc12)NC(=O)[C@H](CCCN=C(N)N)NC(=O)[C@H](CCCN=C(N)N)NC(=O)[C@@H](N)CCCCN)C(=O)N[C@@H](Cc1c[nH]c2ccccc12)C(=O)N[C@@H](CC(C)C)C(=O)N[C@H](C(N)=O)C(C)C` [KRRWRIWLV], for which the MIC was 25.1 µM (≈ 33 µg/mL) in [15]; 6.09 µM (≈ 7.99 µg/mL) in experiment [16]; 5.66 µM (≈ 7.42 µg/mL) in [17]; 8 µM (≈ 10.5 µg/mL) in experiment [18]; 4 µM (≈ 5.25 µg/mL) in experiment [19]; 13 µM and 6.09 µM in [20]. Also, the MIC was 4 µM (≈ 5.25 µg/mL) in experiment [21]; 6.09 µM (≈ 7.99 µg/mL) in [22]; 13 µM and 25.1 µM with Staphylococcus aureus MR; 6.09 µM (≈ 7.99 µg/mL) in the experiment on Staphylococcus aureus; 3.05 µM (≈ 4 µg/mL) in experiment [23].

For the molecule `CC(C)C[C@H](N)C(=O)N[C@H](C(=O)N[C@@H](Cc1ccc(O)cc1)C(=O)N[C@H]1CSSC[C@@H](C(=O)N[C@H](C(=O)N[C@H](C(=O)N[C@H](C(N)=O)C(C)C)[C@@H](C)O)C(C)C)NC(=O)[C@H](Cc2ccccc2)NC(=O)[C@H](CCCN=C(N)N)NC(=O)[C@H](CCCN=C(N)N)NC(=O)[C@H](CCCN=C(N)N)NC1=O)[C@@H](C)O` [LTYCRRRFCVTV], the figures for the MIC in [24] and in experiment [25] were 0.45 µM (≈ 0.681 µg/mL) and 1.37 µM (≈ 2.07 µg/mL), respectively.

On to `CC(C)C[C@H](NC(=O)[C@H](CS)NC(=O)[C@H](CCCCN)NC(=O)[C@H](Cc1ccc(O)cc1)NC(=O)[C@H](CO)NC(=O)[C@H](CCCCN)NC(=O)[C@@H](N)CCCN=C(N)N)C(=O)N[C@@H](Cc1cnc[nH]1)C(=O)N[C@@H](CCCCN)C(=O)N[C@@H](CCCN=C(N)N)C(=O)N[C@@H](CS)C(=O)N[C@@H](CCCN=C(N)N)C(=O)O` [RKSYKCLHKRCR], for which the MIC is 3.96 µM (≈ 6.25 µg/mL) in [26]; 3.96 µM (≈ 6.25 µg/mL) against Candida glabrata 65C; 15.8 µM (≈ 25 µg/mL) in experiment [27]; 3.96 µM (≈ 6.25 µg/mL) in experiment [28]; 1.98 µM (≈ 3.13 µg/mL) in [29]; 3.96 µM (≈ 6.25 µg/mL) in experiment [30]. Also, the MIC is at least 54.1 µM in [31], at least 37.2 µM in experiment [32], 30.4 µM (≈ 48 µg/mL) in [33] and at least 74.4 µM in experiment [34].

For the molecule `CC[C@H](C)[C@H](NC(=O)[C@H](Cc1ccc(O)cc1)NC(=O)[C@@H](NC(=O)[C@@H]1CCCN1C(=O)[C@H](CCCN=C(N)N)NC(=O)[C@H](CCCN=C(N)N)NC(=O)[C@@H](NC(=O)[C@@H](N)CCCN=C(N)N)C(C)C)C(C)C)C(=O)N1CCC[C@H]1C(=O)N[C@@H](CCC(N)=O)C(=O)N1CCC[C@H]1C(=O)N[C@@H](CCCN=C(N)N)C(=O)N1CCC[C@H]1C(=O)N1CCC[C@H]1C(=O)N[C@@H](Cc1cnc[nH]1)C(=O)N1CCC[C@H]1C(=O)N[C@@H](CCCN=C(N)N)C(=O)N[C@@H](CC(C)C)C(=O)O` [RVRRPVYIPQPRPPHPRL], the MIC against Cupriavidus necator H16 was 10 µM (≈ 22.3 µg/mL); in [35], 0.313 µM (≈ 0.699 µg/mL); with Escherichia coli JM109 it was 2.5 µM (≈ 5.59 µg/mL); in [36] it was 3.13 µM (≈ 6.99 µg/mL).

Take `CC[C@H](C)[C@H](NC(=O)[C@H](CCCCN)NC(=O)[C@H](CCCCN)NC(=O)[C@H](Cc1ccccc1)NC(=O)[C@H](CC(C)C)NC(=O)[C@H](CCCCN)NC(=O)[C@@H](N)Cc1c[nH]c2ccccc12)C(=O)N[C@@H](CC(C)C)C(=O)N[C@@H](CCCCN)C(=O)N[C@@H](CCCCN)C(=O)N[C@@H](CC(C)C)C(N)=O` [WKLFKKILKKL]: the MIC is 22.4 µM (≈ 32.3 µg/mL) in experiment [37], 1.73 µM (≈ 2.5 µg/mL) in [38], at least 70.7 µM in experiment [39] and at least 35.4 µM in experiment [40].
